As usually defined, the pKi is the Ki on a negative log10 scale, so that one unit is a factor of ten. As a reminder, the GI50 is the concentration at which growth is held to half of that of the control.

SMILES strings stand for the structures. pKi: −log10 of the molar value.

The subject of one test is OV90 cells. Nature of the test: Colony formation (crystal violet), OV90. Type of test: cell-based. The note with it: OV90, 10 days; 15 at 0.5 and 2 µM, CYC065 at 0.5 µM. As to the method:
(§1) Briefly, ovarian cancer cells (i.e., A2780, OVCAR5, and OV90) seeded in six-well plates were adhered for 6 h and treated with 15. The medium that contained the compound was then changed every 72 h. Ten days after treatment, the cells were washed with PBS, fixed, and stained with crystal violet staining solution (0.05% crystal violet, 1% formaldehyde, 1% PBS, and 1% ethanol), and colonies were quantified using ImageJ software (National Institute of Health, Maryland, USA), with data presented as percentages of the control cells.

In test [1] the test system is OVCAR5 cells. Description: Annexin V/PI apoptosis assay, OVCAR5. Format: cell-based. The note with it: OVCAR5, 0.5 µM, 48 h. As to the method: (§2) Annexin V-fluorescein isothiocyanate (FITC) apoptosis detection kit I (consisting of a ten-time stock solution of binding buffer, FITC–annexin V, and PI staining solution) was used to determine the effect of the compounds on cancer cell survival as previously reported. Briefly, six-well plates (Sigma-Aldrich, NSW, Australia) were seeded with about 1–2 × 10^5 cells/well in 2 mL growth medium, incubated at 37 °C and 5% CO2 overnight, treated with various concentrations of the test compounds, and incubated for 48 h. The wells were collected by trypsinization, transferred into FACS tubes, washed twice with 1 × PBS, and centrifuged at 300× g for 5 min. The pellets were then suspended in 100 µL of 1 × binding buffer and incubated in the dark with 3 µL of PI and 3 µL of FITC-conjugated annexin V solutions for 15 min. Finally, 200 µL of binding buffer was added to each sample and analyzed by the CytoFLEX cytometer. The extent of apoptotic cell death was quantified as the sum of the percentages of early apoptotic cells (annexin V-positive and PI-negative) and late apoptotic cells (both annexin–V- and PI-positive) and presented graphically as a contour diagram relative to the untreated control.

The test system of test [2] is OVCAR5 cells. Nature of the test: Colony formation (crystal violet), OVCAR5. Format: cell-based. The note with it: OVCAR5, 10 days; 15 at 0.5 and 2 µM, CYC065 at 0.5 µM. The protocol: as §1
The test system of test [3] is A2780 cells. Description: Cell cycle analysis by flow cytometry, A2780. Type of test: cell-based. The note with it: A2780, 0.5 µM, 48 h. The protocol:
(§3) The effect of the compounds on cell cycle distribution was evaluated following a previously reported method. Briefly, six-well plates (Sigma-Aldrich, NSW, Australia) were seeded with about 1–2 × 10^5 cells/well in 2 mL growth medium, incubated at 37 °C and 5% CO2 overnight, and treated with various concentrations of the test compounds and incubated for 48 h. The wells were collected by trypsinization, transferred into fluorescence-activating cell sorting (FACS) tubes, washed with 1 × phosphate-buffered saline (1 × PBS) twice, fixed in 70% (v/v) ice-cold ethanol for 15 min, and centrifuged at 300× g for 5 min. The cell pellets were then collected, stained with 200 µL of the cell cycle solution (comprising 50.0 μg/mL PI, 0.1 mg/mL RNase A, and 0.05% Triton X-100), and incubated for 1.5 h at room temperature in the dark. Finally, the DNA content was determined by a flow cytometer (CytoFLEX) and analyzed by CytExpert 2.1 software (Beckman Coulter, Brea, CA, USA).
(In general: Flow cytometry measures light scatter and fluorescence of single cells or particles in a stream.)

The test system of test [4] is OVCAR5 cells. Description: Cell cycle analysis by flow cytometry, OVCAR5. Format: cell-based. The note with it: OVCAR5, 0.5 µM, 48 h. The protocol:
as §3

Test [5] relates to A2780 cells. Description: Colony formation (crystal violet), A2780. Type of test: cell-based. The note with it: A2780, 10 days; 15 at 0.5 and 2 µM, CYC065 at 0.5 µM. The protocol: as §1
Test [6] relates to A2780 cells. Nature of the test: Annexin V/PI apoptosis assay, A2780. Format: cell-based. The note with it: A2780, 0.5 µM, 48 h. As to the method:
as §2

Another test has as its target CDK5/p25 (CDK5p25) (Homo sapiens, UniProt Q00535). Set-up: method as in PMID 36706608. The note with it: previously reported data for 1; cited from earlier work.
Test [7] concerns A2780 ovarian cancer cells. Also noted: method as in PMID 36706608. The note with it: previously reported data for 1; cited from earlier work.
Another test deals with CDK9/cyclin T1 (CDK9T1) (Homo sapiens, UniProt P50750). Set-up: method as in PMID 36706608. The note with it: previously reported data for 1; cited from earlier work.
For a further test, the target named is CDK1/cyclin B (CDK1B) (Homo sapiens, UniProt P06493). Also noted: method as in PMID 36706608. The note with it: previously reported data for 1; cited from earlier work.
A further test addresses CDK2/cyclin E (CDK2E) (Homo sapiens, UniProt P24941). Set-up: method as in PMID 36706608. The note with it: previously reported data for 1; cited from earlier work.

Sequence of CDK9/cyclin T1 (CDK9T1) (P50750 whole entry): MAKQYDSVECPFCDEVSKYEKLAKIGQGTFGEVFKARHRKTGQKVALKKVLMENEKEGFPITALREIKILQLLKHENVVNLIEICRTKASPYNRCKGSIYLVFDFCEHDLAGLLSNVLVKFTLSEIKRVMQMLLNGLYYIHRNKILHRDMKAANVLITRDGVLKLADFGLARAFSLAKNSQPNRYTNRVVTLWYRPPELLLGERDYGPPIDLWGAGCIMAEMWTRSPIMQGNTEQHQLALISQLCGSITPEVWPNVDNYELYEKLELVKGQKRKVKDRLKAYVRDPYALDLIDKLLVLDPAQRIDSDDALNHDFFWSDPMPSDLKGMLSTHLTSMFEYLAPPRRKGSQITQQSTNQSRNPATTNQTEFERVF
Sequence of CDK9/cyclin T1 (CDK9T1) (O60563 whole entry partner): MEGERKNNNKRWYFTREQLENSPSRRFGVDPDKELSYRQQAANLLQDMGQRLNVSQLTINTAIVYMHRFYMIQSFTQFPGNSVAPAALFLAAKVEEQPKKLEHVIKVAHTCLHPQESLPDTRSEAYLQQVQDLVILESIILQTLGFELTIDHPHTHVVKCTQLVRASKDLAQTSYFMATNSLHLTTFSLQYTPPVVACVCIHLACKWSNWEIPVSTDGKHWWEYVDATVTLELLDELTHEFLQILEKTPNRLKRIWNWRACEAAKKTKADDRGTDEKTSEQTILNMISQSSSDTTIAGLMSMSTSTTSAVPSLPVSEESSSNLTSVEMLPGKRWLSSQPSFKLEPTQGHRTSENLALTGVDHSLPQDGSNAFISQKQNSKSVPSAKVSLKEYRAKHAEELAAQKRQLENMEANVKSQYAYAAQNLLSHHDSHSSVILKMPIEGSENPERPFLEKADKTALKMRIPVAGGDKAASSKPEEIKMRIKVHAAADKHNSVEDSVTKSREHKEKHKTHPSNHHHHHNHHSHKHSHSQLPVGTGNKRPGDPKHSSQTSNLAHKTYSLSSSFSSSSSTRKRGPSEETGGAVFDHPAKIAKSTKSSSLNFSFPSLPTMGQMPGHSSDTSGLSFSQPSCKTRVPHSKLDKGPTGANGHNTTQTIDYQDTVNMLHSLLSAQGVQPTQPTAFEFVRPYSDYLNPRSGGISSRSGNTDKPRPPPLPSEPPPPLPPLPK
Sequence of CDK1/cyclin B (CDK1B) (P06493 whole entry): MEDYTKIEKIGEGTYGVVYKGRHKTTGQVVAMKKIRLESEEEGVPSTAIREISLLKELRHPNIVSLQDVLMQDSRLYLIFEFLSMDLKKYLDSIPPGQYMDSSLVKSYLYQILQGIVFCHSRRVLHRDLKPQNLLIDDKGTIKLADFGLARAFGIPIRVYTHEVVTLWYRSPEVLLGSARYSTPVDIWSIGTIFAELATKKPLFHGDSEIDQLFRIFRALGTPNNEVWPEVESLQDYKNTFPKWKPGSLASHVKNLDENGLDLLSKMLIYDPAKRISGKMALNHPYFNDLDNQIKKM
Sequence of CDK1/cyclin B (CDK1B) (P14635 whole entry partner): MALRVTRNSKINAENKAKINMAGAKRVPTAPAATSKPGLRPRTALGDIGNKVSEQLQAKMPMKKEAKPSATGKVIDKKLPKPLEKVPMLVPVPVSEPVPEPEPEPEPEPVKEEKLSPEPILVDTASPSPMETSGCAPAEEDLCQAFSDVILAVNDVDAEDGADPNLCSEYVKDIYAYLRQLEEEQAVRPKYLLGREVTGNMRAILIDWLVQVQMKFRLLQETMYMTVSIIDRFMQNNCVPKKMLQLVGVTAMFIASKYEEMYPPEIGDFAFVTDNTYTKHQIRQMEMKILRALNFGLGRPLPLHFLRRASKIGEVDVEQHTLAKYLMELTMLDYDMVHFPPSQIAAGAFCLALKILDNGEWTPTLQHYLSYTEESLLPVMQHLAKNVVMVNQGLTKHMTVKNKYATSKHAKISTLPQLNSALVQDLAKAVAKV
Sequence of CDK5/p25 (CDK5p25) (Q00535 whole entry): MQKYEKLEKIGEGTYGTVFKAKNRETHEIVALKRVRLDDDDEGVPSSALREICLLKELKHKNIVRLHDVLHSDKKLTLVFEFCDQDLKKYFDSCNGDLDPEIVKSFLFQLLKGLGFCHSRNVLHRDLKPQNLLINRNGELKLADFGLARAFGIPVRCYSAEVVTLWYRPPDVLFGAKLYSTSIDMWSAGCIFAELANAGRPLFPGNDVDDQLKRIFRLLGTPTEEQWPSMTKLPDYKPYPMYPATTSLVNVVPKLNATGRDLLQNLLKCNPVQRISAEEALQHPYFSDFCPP
Sequence of CDK5/p25 (CDK5p25) (Q15078 99-307 partner limits assumed): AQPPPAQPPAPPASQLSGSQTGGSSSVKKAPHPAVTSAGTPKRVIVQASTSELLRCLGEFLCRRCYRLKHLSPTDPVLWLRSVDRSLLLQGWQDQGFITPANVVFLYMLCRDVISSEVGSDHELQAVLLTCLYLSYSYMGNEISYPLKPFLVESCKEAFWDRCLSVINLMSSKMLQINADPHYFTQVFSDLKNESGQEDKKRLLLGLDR

For the molecule `CC[C@H](Nc1nc(NCc2cnc(C)cc2C)c2ncn(C(C)C)c2n1)[C@@H](C)O` [CYC065, reference compound], the “effect on colony formation” value in the test with OV90 cells is on record as “reduced”; in the test on OVCAR5 cells [2], “lowest effect”; in the test on A2780 cells [5] it was “reduced”. In addition, the viability at 0.5 µM worked out at 81.9% with OVCAR5 cells [1] (Homo sapiens, OVCAR-5, read-out: Q1-LL, viable cells) and 26% in the test on A2780 cells [6] (Homo sapiens, read-out: Q1-LL, viable cells). Also, the “apoptosis (annexin V positive, early + late)” value in the test on OVCAR5 cells [1] worked out at 16%; in the test with A2780 cells [6] it was 73%. This molecule yielded a S-phase cells in the test with A2780 cells [3] of 24%. Moreover, in the test with A2780 cells [3], the Sub-G1 cells is recorded as 27%. The “increment in the subpopulation of G2/M cells compared to the vehicle control” value with OVCAR5 cells [4] stood at 12%.
On to `Cn1cc(-c2nc(Nc3cccc(S(N)(=O)=O)c3)ncc2F)cn1` [Compound 1, 3-((5-fluoro-4-(1-methyl-1H-pyrazol-4-yl)pyrimidin-2-yl)amino)benzenesulfonamide], for which the negative-log Ki (pKi) at CDK5/p25 (CDK5p25) is 7.11; on CDK9/cyclin T1 (CDK9T1) it was 7.59; at CDK1/cyclin B (CDK1B), 8.30; at CDK2/cyclin E (CDK2E), 7.64. For the same molecule, the concentration for 50% growth inhibition (GI50) in [7] is 0.018 µM.

Source of the values: publication PMC10096391, “Discovery of N,4-Di(1H-pyrazol-4-yl)pyrimidin-2-amine-Derived CDK2 Inhibitors as Potential Anticancer Agents: Design, Synthesis, and Evaluation” (Molecules, 2023).
